In ChEMBL document CHEMBL3526058, “Investigating the enteroenteric recirculation of apixaban, a factor Xa inhibitor: administration of activated charcoal to bile duct-cannulated rats and dogs receiving an intravenous dose and use of drug transporter knockout rats” (Drug Metab Dispos, 2013):

Key:
[1] = Half life in beagle dog at 5 mg/kg, po followed by activated charcoal administration 3 hrs post compound dosing; type: ADME, organism-based, Canis lupus familiaris; design: dose 5 mg/kg, route oral; conditions: in vivo
[2] = Apparent oral clearance in beagle dog at 5 mg/kg, po followed by activated charcoal administration 3 hrs post compound dosing; type: ADME, organism-based, Canis lupus familiaris; design: dose 5 mg/kg, route oral; conditions: in vivo
[3] = Oral steady-state volume of distribution in beagle dog at 5 mg/kg followed by activated charcoal administration 3 hrs post compound dosing; type: ADME, organism-based, Canis lupus familiaris; design: dose 5 mg/kg; conditions: in vivo, read-out: Vss/F
[4] = Mean residence time in beagle dog at 5 mg/kg, po followed by activated charcoal administration 3 hrs post compound dosing; type: ADME, organism-based, Canis lupus familiaris; design: dose 5 mg/kg, route oral; conditions: in vivo
[5] = Oral bioavailability in beagle dog at 5 mg/kg followed by activated charcoal administration 3 hrs post compound dosing; type: ADME, organism-based, Canis lupus familiaris; conditions: in vivo
Rattus norvegicus = species: Rattus norvegicus; assay: Plasma clearance in rat relative to hepatic blood flow; type: ADME, organism-based; conditions: in vivo
Canis familiaris = species: Canis familiaris; assay: Plasma clearance in dog relative to hepatic blood flow; type: ADME, organism-based, Canis lupus familiaris; conditions: in vivo
Homo sapiens [6] = species: Homo sapiens; assay: Plasma clearance in human relative to hepatic blood flow; type: ADME, organism-based; conditions: in vivo
Homo sapiens [7] = assay: Volume of distribution in human administered bid orally; type: ADME, organism-based; conditions: in vivo, po
[8] = Half life in human administered bid orally; type: ADME, organism-based; conditions: in vivo, po
[9] = AUC (0 to infinity) in wild-type Sprague-Dawley rat at 4 mg/kg, po; type: ADME, organism-based; design: time infinity, dose 4 mg/kg, route oral; conditions: plasma
[10] = Cmax in wild-type Sprague-Dawley rat at 4 mg/kg, po; type: ADME, organism-based; design: dose 4 mg/kg, route oral; conditions: in vivo
[11] = Half life in wild-type Sprague-Dawley rat at 4 mg/kg, po; type: ADME, organism-based; design: dose 4 mg/kg, route oral; conditions: in vivo
[12] = Apparent oral clearance in wild-type Sprague-Dawley rat at 4 mg/kg, po; type: ADME, organism-based; design: dose 4 mg/kg, route oral; conditions: in vivo
[13] = Oral steady-state volume of distribution in wild-type Sprague-Dawley rat at 4 mg/kg; type: ADME, organism-based; design: dose 4 mg/kg; conditions: in vivo, read-out: Vss/F
[14] = Mean residence time in wild-type Sprague-Dawley rat at 4 mg/kg, po; type: ADME, organism-based; design: dose 4 mg/kg, route oral; conditions: in vivo
[15] = Oral bioavailability in wild-type Sprague-Dawley rat at 4 mg/kg; type: ADME, organism-based; conditions: in vivo
[16] = AUC (0 to infinity) in P-gp-knockout Sprague-Dawley rat at 4 mg/kg, po; type: ADME, organism-based; design: time infinity, dose 4 mg/kg, route oral; conditions: plasma
[17] = Cmax in P-gp-knockout Sprague-Dawley rat at 4 mg/kg, po; type: ADME, organism-based; design: dose 4 mg/kg, route oral; conditions: in vivo
[18] = Half life in P-gp-knockout Sprague-Dawley rat at 4 mg/kg, po; type: ADME, organism-based; design: dose 4 mg/kg, route oral; conditions: in vivo
[19] = Apparent oral clearance in P-gp-knockout Sprague-Dawley rat at 4 mg/kg, po; type: ADME, organism-based; design: dose 4 mg/kg, route oral; conditions: in vivo
[20] = Oral steady-state volume of distribution in P-gp-knockout Sprague-Dawley rat at 4 mg/kg; type: ADME, organism-based; design: dose 4 mg/kg; conditions: in vivo, read-out: Vss/F
[21] = Mean residence time in P-gp-knockout Sprague-Dawley rat at 4 mg/kg, po; type: ADME, organism-based; design: dose 4 mg/kg, route oral; conditions: in vivo
[22] = Oral bioavailability in P-gp-knockout Sprague-Dawley rat at 4 mg/kg; type: ADME, organism-based; conditions: in vivo
[23] = AUC (0 to infinity) in BCRP-knockout Sprague-Dawley rat at 4 mg/kg, po; type: ADME, organism-based; design: time infinity, dose 4 mg/kg, route oral; conditions: plasma
[24] = Cmax in BCRP-knockout Sprague-Dawley rat at 4 mg/kg, po; type: ADME, organism-based; design: dose 4 mg/kg, route oral; conditions: in vivo
[25] = Half life in BCRP-knockout Sprague-Dawley rat at 4 mg/kg, po; type: ADME, organism-based; design: dose 4 mg/kg, route oral; conditions: in vivo
[26] = Apparent oral clearance in BCRP-knockout Sprague-Dawley rat at 4 mg/kg, po; type: ADME, organism-based; design: dose 4 mg/kg, route oral; conditions: in vivo
[27] = Oral steady-state volume of distribution in BCRP-knockout Sprague-Dawley rat at 4 mg/kg; type: ADME, organism-based; design: dose 4 mg/kg; conditions: in vivo, read-out: Vss/F
[28] = Mean residence time in BCRP-knockout Sprague-Dawley rat at 4 mg/kg, po; type: ADME, organism-based; design: dose 4 mg/kg, route oral; conditions: in vivo
[29] = Oral bioavailability in BCRP-knockout Sprague-Dawley rat at 4 mg/kg; type: ADME, organism-based; conditions: in vivo
[30] = AUC (0 to infinity) in Sprague-Dawley rat at 4 mg/kg, po administered 1 hr post GF-120918 treatment; type: ADME, organism-based; design: time infinity, dose 4 mg/kg, route oral; conditions: plasma, with GF-120918

Structure (SMILES): COc1ccc(-n2nc(C(N)=O)c3c2C(=O)N(c2ccc(N4CCCCC4=O)cc2)CC3)cc1
- half-life [1]: 3 h
- CL/F [2]: 1.68 mL/min/kg
- Vd/F [3]: 0.5 L/kg
- MRT [4]: 5.3 h
- bioavailability [5]: 77%
- CL (Rattus norvegicus): < 5%
- CL (Canis familiaris): < 5%
- CL (Homo sapiens [6]): < 5%
- Vd (Homo sapiens [7]): 0.3 L/kg
- half-life [8]: 12 h
- AUC(0-inf) [9]: 1390 ng·h/mL
- Cmax [10]: 420 ng/mL
- half-life [11]: 3.3 h
- CL/F [12]: 25 mL/min/kg
- Vd/F [13]: 5.8 L/kg
- MRT [14]: 3.8 h
- bioavailability [15]: 49%
- AUC(0-inf) [16]: 3340 ng·h/mL
- Cmax [17]: 940 ng/mL
- half-life [18]: 3.8 h
- CL/F [19]: 10 mL/min/kg
- Vd/F [20]: 2.4 L/kg
- MRT [21]: 3.8 h
- bioavailability [22]: 71%
- AUC(0-inf) [23]: 5710 ng·h/mL
- Cmax [24]: 1920 ng/mL
- half-life [25]: 2.5 h
- CL/F [26]: 6.67 mL/min/kg
- Vd/F [27]: 1.1 L/kg
- MRT [28]: 2.9 h
- bioavailability [29]: 122%
- AUC(0-inf) [30]: 6570 ng·h/mL
